What all share (assay): growth of human tumour cells (NCI), 48 h
Assay [1] relates to EKVX NSCLC.
Assay [2] concerns OVCAR-8 ovarian.
For assay [3], the system named is SK-MEL-5 melanoma.
The subject of assay [4] is UACC-257 melanoma.
In assay [5] the test system is SK-MEL-2 melanoma.
The subject of assay [6] is TK-10 renal.
Assay [7] relates to SF-295 CNS.
Assay [8] deals with SNB-19 CNS.
The test system of assay [9] is RPMI-8226 leukemia.
Assay [10] has as its system ACHN renal.
Assay [11] has as its system K-562 leukemia.
The test system of assay [12] is KM12 colon.
Assay [13] deals with MDA-MB-435.
Assay [14] concerns PC-3 prostate.

Several values for one entry are separate records, joined by “and”; a condition that tells them apart may be missing. Identical values can stand only once.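 Where inhibition never reached the appropriate level, the endpoint shown equals the highest concentration tested. Otherwise, values were interpolated linearly from a five-concentration, 48-hour dose response in 96-well plates. GI50: concentration for 50% inhibition of growth. The concentration for full growth arrest is given as TGI.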

The results in this text go back to PubChem BioAssay (NCI).

Take `CO[C@@H]1C=C[C@@]23c4cc5c(cc4C(=O)O[C@H]2CN(C)[C@H]3C1)OCO5`: the TGI in assay [1], in [2], in [3], in assay [4], in assay [5] and in assay [6] was above 100 µM throughout. The TGI in assay [7], in assay [8], in assay [9], in assay [10], in assay [11] and in assay [12] was above 100 µM in each case.
For the molecule `CC(=O)OC1CCCn2c1nc1c2C(=O)C(C)=C(N2CC2)C1=O` (stereo unspecified), the TGI came to 1.9 µM in assay [1]; 1.37 µM in assay [2]; 0.351 µM in [3]; 0.587 µM in assay [4]; 0.693 µM in assay [5]; 7.28 µM in assay [6]. For the same molecule, the TGI in assay [7] was 0.665 µM; in [8], 1.38 µM; in assay [9], 14.2 µM; in [10], 1.25 µM; in assay [11], above 35.2 µM; in assay [12] it was 1.24 µM.
As to `O=C(N=Nc1cccc(Cl)c1)NNc1cccc(Cl)c1`, the TGI is 50.1 µM in assay [2]; 38.4 µM in assay [3]; 54.3 µM in assay [4]; 24.6 µM in assay [5]; 66.6 µM in assay [6]; above 100 µM in assay [8]. Also, the TGI in assay [13] was found to be 26.5 µM; in assay [14], 36 µM; in assay [9], 56.8 µM; in assay [10], 50.8 µM; in assay [11], 39.6 µM.
`CC1(C)C(O)C[C@@H](O)[C@@]2(C)C1CC[C@]1(C)C2C[C@@H](O)[C@@H]2C([C@@]3(C)CC[C@@H](C(C)(C)O)O3)CCC21C` (stereo partly specified): the TGI in assay [1] was 53.9 µM; in assay [2] it was 36.6 µM; in [3] it was 22.6 µM; in [4] it was above 54.1 µM; in assay [5] it was 28.9 µM; in assay [6] it was above 62.1 µM. Besides, the TGI in assay [7] was 30.2 µM; in assay [8], 30.4 µM; in assay [9], 66.5 µM; in assay [10] it was 35.8 µM; in [11], above 100 µM; in assay [12], 30.6 µM.
In the case of `CN(C)S(=O)(=O)/N=C/c1cccc(/C=N/S(=O)(=O)N(C)C)c1`, the TGI in assay [1], in [2], in assay [3], in assay [4], in [6] and in [7] was above 100 µM in each case. Moreover, the TGI in assay [8], in assay [13], in assay [14], in assay [9], in assay [10] and in assay [11] was above 100 µM in each case. The TGI in assay [12] was above 100 µM.
`CCOC(=O)[C@@]12C3C=CC(CC3)[C@]1(C(=O)c1ccccc1)C(=O)C(=O)N2c1ccccc1` (stereo partly specified): the TGI in [2], in assay [3], in assay [5], in assay [6], in assay [7] and in [8] was above 100 µM throughout. The TGI in assay [13], in [14], in assay [9], in assay [10], in assay [11] and in assay [12] was above 100 µM in each case.
As for `CC(C)=NNC=N/C(C#N)=C(\N)C#N`, the TGI in assay [1], in assay [2], in assay [3], in [4], in assay [5] and in [6] was above 100 µM each time. Also, the TGI in assay [7], in [8], in assay [14], in assay [9], in [10] and in assay [11] was above 100 µM throughout.
As for `O=C(O)CCc1ccc2c(c1)C(=O)CC2`, the TGI in assay [1], in assay [2], in assay [3], in assay [4], in [5] and in assay [6] was above 100 µM each time. Besides, the TGI in assay [7], in [8], in [13], in assay [9], in assay [10] and in assay [11] was above 100 µM throughout. Besides, the TGI in assay [12] was above 100 µM.
For `Nc1cc(N2CCCC2)nc(=O)n1-c1ccccc1`, the TGI in assay [1], in [2], in assay [3], in [4], in assay [5] and in [6] was above 100 µM in each case. In addition, the TGI in assay [7], in assay [8], in assay [13], in assay [14], in assay [9] and in [10] was above 100 µM throughout. Besides, the TGI in assay [11] and in assay [12] was above 100 µM each time.
Turning to `COc1ccc2[nH]cc([C@@H]3C4CCC(C4)[C@H]3NCc3cccc(CN[C@H]4C5CCC(C5)[C@@H]4c4c[nH]c5ccc(OC)cc45)c3)c2c1`, the TGI is 2.91 µM and 2.89 µM in assay [1]; 1.86 µM and 2.35 µM in assay [2]; 2.52 µM and 2.99 µM in [3]; 3.15 µM and 2.74 µM in assay [4]; 2.91 µM and 2.99 µM in [5]; 2.87 µM and 3.03 µM in assay [6]. The TGI in [7] is 2.97 µM and 3.08 µM; in assay [8] it was 2.94 µM; in assay [13] it was 0.988 µM and 0.962 µM; in assay [14], 2.93 µM and 2.59 µM; in assay [9] it was 1.65 µM and 1.26 µM; in assay [10], 2.55 µM and 3.16 µM. In addition, the TGI in [12] is 0.95 µM and 1.34 µM. Further, the GI50 in assay [2] was 0.625 µM; in [3], 1.25 µM; in assay [9], 0.66 µM; in assay [11], 0.375 µM.
Take `N#C/C(C(=O)Nc1ccc(Cl)cc1)=C(/N)N1CCCCC1`: the TGI in assay [1], in [2], in assay [3], in assay [4], in [5] and in assay [7] was above 100 µM throughout. For the same molecule, the TGI in assay [8], in assay [13], in [14], in [9], in [10] and in [11] was above 100 µM throughout. The TGI in assay [12] is above 100 µM.
On to `CNC(=O)N(CCC#N)CCCN(C(=O)NC)c1ccccc1`, for which the TGI in assay [1], in assay [2], in assay [3], in assay [4], in assay [5] and in [6] was above 100 µM each time. For the same molecule, the TGI in assay [7], in assay [8], in assay [13], in assay [14], in assay [9] and in [10] was above 100 µM each time. Besides, the TGI in assay [11] and in assay [12] was above 100 µM each time.
Consider `COC(=O)/C=C1/CCC(C)(C(=O)NS(=O)(=O)c2ccc(C)cc2)C1(C)C` (stereo unspecified), for which the TGI in assay [1], in [2], in [3], in assay [4], in assay [5] and in assay [6] was above 100 µM each time. In addition, the TGI in [7], in assay [8], in [13], in assay [14], in [9] and in [10] was above 100 µM in each case. Besides, the TGI in [11] and in [12] was above 100 µM throughout.
`NC(=S)N/N=C1\NC(=O)/C(=C/c2ccc3c(c2)OCO3)S1`: the TGI in assay [1] was 56 µM; in assay [2], 78 µM; in assay [3] it was 37.7 µM; in assay [4], 76.1 µM; in [5], 90.1 µM; in assay [6] it was above 100 µM. Besides, the TGI is above 100 µM in [7]; 53.6 µM in [8]; 78.1 µM in [13]; above 100 µM in [10]; 55.3 µM in [12].
For `CCc1c(Cc2[nH]c(Cc3[nH]c(C=O)c(C)c3CC)c(CC)c2CC)[nH]c(C=O)c1C`, the TGI in assay [1] was above 100 µM; in assay [2] it was above 100 µM; in assay [3] it was above 100 µM; in [4] it was above 1 µM; in assay [6] it was above 100 µM; in assay [7], above 100 µM. Besides, the TGI in [8], in [9], in assay [10] and in assay [11] was above 100 µM each time.
For `CC(C)(C)OC(=O)NCCc1cccc2c1oc1c(CCC(=O)O)cccc12`, the TGI in [2], in assay [3], in assay [4], in assay [5], in [6] and in assay [7] was above 100 µM each time. Further, the TGI in assay [8], in [9], in [10], in assay [11] and in assay [12] was above 100 µM in each case.
